Experimental data as given in publication PMC9134403 (ACS Omega, 2022).

Target: mushroom tyrosinase (Agaricus bisporus, UniProt C7FF04)
Assay: Kinetic analysis
Assay type: biochemical

mushroom tyrosinase, sequence (C7FF04 1-392): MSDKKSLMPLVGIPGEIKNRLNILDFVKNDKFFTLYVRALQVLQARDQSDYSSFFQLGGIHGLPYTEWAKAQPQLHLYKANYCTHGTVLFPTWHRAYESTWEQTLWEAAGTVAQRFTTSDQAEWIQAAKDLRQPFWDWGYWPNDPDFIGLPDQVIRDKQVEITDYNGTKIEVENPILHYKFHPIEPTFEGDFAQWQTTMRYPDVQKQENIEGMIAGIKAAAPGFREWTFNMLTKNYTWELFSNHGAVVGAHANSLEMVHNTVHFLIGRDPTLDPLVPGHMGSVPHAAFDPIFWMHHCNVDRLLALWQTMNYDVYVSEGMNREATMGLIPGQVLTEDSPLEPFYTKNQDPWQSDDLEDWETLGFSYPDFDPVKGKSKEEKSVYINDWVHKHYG

- Ki: 1980 nM
- mode of inhibition (Lineweaver–Burk plot, Km increased, Vmax constant): competitive
SMILES: O=[N+]([O-])c1cccc(-c2oc3cc(Br)cc(Br)c3c(=S)c2O)c1 [2n, 5,7-Dibromo-3-hydroxy-2-(3-nitrophenyl)-4H-chromene-4-thione]
